Drawing on PubChem BioAssay AID256 (DTP/NCI, 2004), this text covers T/C for 20 compounds.

The assay relates to CD2F1 mice, L1210 leukemia ip, survival T/C. The assay is described as follows: NCI In Vivo Anticancer Drug Screen. Data for tumor model L1210 Leukemia (intraperitoneal) in CD2F1 (CDF1) mice. The note with it: higher = longer survival. In short, it runs like this: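 Transplantable tumor in mice; compound-treated vs vehicle-treated groups. Read-out = treated/control ratio of the measured endpoint.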

Setting [1] is: endpoint: mean survival time, dose: 12.5 mg/kg/injection, schedule: Q04DX002 (ip), vehicle: saline with Tween-80.
[2] abbreviates: endpoint: mean survival time, dose: 25.0 mg/kg/injection, schedule: Q01DX001 (ip), vehicle: saline with Tween-80.
[3] abbreviates: endpoint: mean survival time, dose: 25.0 mg/kg/injection, schedule: Q04DX002 (ip), vehicle: saline with Tween-80.
Setting [4] is: endpoint: mean survival time, dose: 100.0 mg/kg/injection, schedule: Q01DX001 (ip), vehicle: saline with Tween-80.
[5] abbreviates: endpoint: mean survival time, dose: 50.0 mg/kg/injection, schedule: Q04DX002 (ip), vehicle: saline with Tween-80.
Setting [6] is: endpoint: mean survival time, dose: 100.0 mg/kg/injection, schedule: Q04DX003 (ip), vehicle: saline with Tween-80.
[7] abbreviates: endpoint: mean survival time, dose: 200.0 mg/kg/injection, schedule: Q04DX003 (ip), vehicle: saline with Tween-80.
The mark [8] stands for this setting: endpoint: mean survival time, dose: 400.0 mg/kg/injection, schedule: Q04DX003 (ip), vehicle: saline with Tween-80.
The mark [9] stands for this setting: endpoint: mean survival time, dose: 100.0 mg/kg/injection, schedule: Q01DX001 (ip), vehicle: saline.
Where [10] appears, read: endpoint: mean survival time, dose: 100.0 mg/kg/injection, schedule: Q04DX002 (ip), vehicle: saline with Tween-80.
Where [11] appears, read: endpoint: mean survival time, dose: 200.0 mg/kg/injection, schedule: Q04DX002 (ip), vehicle: saline with Tween-80.

Values joined by “and” are separate entries in the source; they are usually repeats but may differ in a detail not shown here. Equal entries are not always repeated. Inconclusive results and toxic doses are left out.

Regarding `CSc1ncnc2c(C3OC(COC(C)=O)C(OC(C)=O)C3OC(C)=O)[nH]nc12` (stereo unspecified), the T/C reads like this: (endpoint: median survival time, dose: 8.0 mg/kg/injection, schedule: Q01DX005 (ip), vehicle: distilled water + Tween-80) 94 % of control; (endpoint: median survival time, dose: 16.0 mg/kg/injection, schedule: Q01DX005 (ip), vehicle: distilled water + Tween-80) 103 % of control; (endpoint: median survival time, dose: 32.0 mg/kg/injection, schedule: Q01DX005 (ip), vehicle: distilled water + Tween-80) 96 % of control; (endpoint: median survival time, dose: 64.0 mg/kg/injection, schedule: Q01DX005 (ip), vehicle: distilled water + Tween-80) 103 % of control; (endpoint: median survival time, dose: 128.0 mg/kg/injection, schedule: Q01DX005 (ip), vehicle: distilled water + Tween-80) 106 % of control.
`CCCC(C(CC)CN(C)C)N(C)C` (stereo unspecified): the T/C is, setting by setting: (endpoint: mean survival time, dose: 3.12 mg/kg/injection, schedule: Q04DX002 (ip), vehicle: saline with Tween-80) 113 % of control; (endpoint: mean survival time, dose: 6.25 mg/kg/injection, schedule: Q04DX002 (ip), vehicle: saline with Tween-80) 106 % of control; under setting [1], 107 % of control; under setting [2], 120 % of control; under setting [3], 103 % of control; (endpoint: mean survival time, dose: 50.0 mg/kg/injection, schedule: Q01DX001 (ip), vehicle: saline with Tween-80) 100 % of control. Moreover, the T/C under setting [4] was 100 % of control.
Turning to `COc1ccc(OC)c(CCc2cc(OC)ccc2OC)c1`, the T/C runs as follows: (endpoint: mean survival time, dose: 12.5 mg/kg/injection, schedule: Q04DX003 (ip), vehicle: other) 97 % of control; (endpoint: mean survival time, dose: 25.0 mg/kg/injection, schedule: Q04DX003 (ip), vehicle: other) 86 % of control; (endpoint: mean survival time, dose: 50.0 mg/kg/injection, schedule: Q04DX003 (ip), vehicle: other) 97 % of control.
On to `Nc1ccc(-c2c(N)ncc3ccccc23)cc1`, for which the T/C (endpoint: mean survival time, dose: 50.0 mg/kg/injection, schedule: Q04DX003 (ip), vehicle: DMSO) was 101 % of control.
Consider `COc1ccc(C(O)(c2ccccc2)C(O)c2ccccc2)cc1` (stereo unspecified), for which the T/C is 93 % of control under setting [1]; 86 % of control under setting [3]; 86 % of control under setting [5]; 93 % of control under setting [6]; 87 % of control under setting [7]; 94 % of control and 89 % of control under setting [8].
On to `CS(=O)(=O)Nc1ccc(Nc2c3ccccc3nc3cc([N+](=O)[O-])ccc23)cc1`, for which the T/C reads like this: (endpoint: mean survival time, dose: 7.0 mg/kg/injection, schedule: Q01DX009 (ip), vehicle: saline) 237 % of control; (endpoint: mean survival time, dose: 10.0 mg/kg/injection, schedule: Q01DX009 (ip), vehicle: saline) 155 % of control; (endpoint: mean survival time, dose: 12.5 mg/kg/injection, schedule: Q01DX001 (ip), vehicle: saline) 175 % of control; (endpoint: mean survival time, dose: 25.0 mg/kg/injection, schedule: Q01DX001 (ip), vehicle: saline) 195 % of control; (endpoint: mean survival time, dose: 50.0 mg/kg/injection, schedule: Q01DX001 (ip), vehicle: saline) 170 % of control; under setting [9], 116 % of control.
Regarding `CC(=Nc1ccccc1)C1=C(O)C(Cc2ccc(O)c(O)c2)NC1=O` (stereo unspecified), the T/C by setting is: under setting [5], 103 % of control; under setting [10], 103 % of control; under setting [11], 100 % of control.
As to `O=C(C1CCC2(CCCCC2)CC1)n1ccnc1`, the T/C is, setting by setting: (endpoint: mean survival time, dose: 12.5 mg/kg/injection, schedule: Q01DX009 (ip), vehicle: other) 95 % of control; (endpoint: mean survival time, dose: 25.0 mg/kg/injection, schedule: Q01DX009 (ip), vehicle: other) 89 % of control; (endpoint: mean survival time, dose: 50.0 mg/kg/injection, schedule: Q01DX009 (ip), vehicle: other) 106 % of control; (endpoint: mean survival time, dose: 100.0 mg/kg/injection, schedule: Q01DX009 (ip), vehicle: other) 93 % of control; (endpoint: mean survival time, dose: 200.0 mg/kg/injection, schedule: Q01DX009 (ip), vehicle: other) 97 % of control.
With `CCc1ccc(-n2cnc3c(=O)[nH]c(N)nc32)cc1`, the T/C runs as follows: under setting [4], 87 % of control; (endpoint: mean survival time, dose: 400.0 mg/kg/injection, schedule: Q01DX001 (ip), vehicle: saline with Tween-80) 93 % of control.
For the compound `CCCCCCCCCCNC(C1=C(O)c2ccccc2C(=O)C1=O)c1ccccc1` (stereo unspecified), the T/C was 107 % of control (endpoint: mean survival time, dose: 6.25 mg/kg/injection, schedule: Q01DX001 (ip), vehicle: saline with Tween-80); 100 % of control (endpoint: mean survival time, dose: 12.5 mg/kg/injection, schedule: Q01DX001 (ip), vehicle: saline with Tween-80); 92 % of control under setting [2].
Take `CCOC(=O)C(C(=O)OCC)C1CCC2(C)CCC(=O)C=C2C1` (stereo unspecified): the T/C runs as follows: under setting [10], 100 % of control and 107 % of control and 108 % of control; under setting [11], 100 % of control and 101 % of control and 104 % of control; (endpoint: mean survival time, dose: 400.0 mg/kg/injection, schedule: Q04DX002 (ip), vehicle: saline with Tween-80) 98 % of control and 100 % of control; (endpoint: mean survival time, dose: 600.0 mg/kg/injection, schedule: Q04DX002 (ip), vehicle: saline with Tween-80) 109 % of control.
On to `C=C.O=C(O)/C=C\C(=O)O.[Mn]`, for which the T/C by setting is: (endpoint: mean survival time, dose: 1.0 mg/kg/injection, schedule: Q01DX009 (ip), vehicle: saline with Tween-80) 95 % of control; (endpoint: mean survival time, dose: 1.0 mg/kg/injection, schedule: Q04DX003 (ip), vehicle: saline with Tween-80) 97 % of control; (endpoint: mean survival time, dose: 2.0 mg/kg/injection, schedule: Q01DX009 (ip), vehicle: saline with Tween-80) 95 % of control; (endpoint: mean survival time, dose: 2.0 mg/kg/injection, schedule: Q04DX003 (ip), vehicle: saline with Tween-80) 95 % of control; (endpoint: mean survival time, dose: 4.0 mg/kg/injection, schedule: Q04DX003 (ip), vehicle: saline with Tween-80) 91 % of control.
Take `Nc1nc2nc(CBr)c(CBr)nc2c(=O)[nH]1`: for the setting “endpoint: mean survival time, dose: 200.0 mg/kg/injection, schedule: Q01DX009 (ip), vehicle: saline with Tween-80”, the T/C is 101 % of control.
As for `S=C1N(C2CCCCC2)CCN1C1CCCCC1`, the T/C is 108 % of control (endpoint: mean survival time, dose: 25.0 mg/kg/injection, schedule: Q01DX001 (ip), vehicle: Klucel (hydroxypropylcellulose) (HPC)); 108 % of control (endpoint: mean survival time, dose: 50.0 mg/kg/injection, schedule: Q01DX001 (ip), vehicle: Klucel (hydroxypropylcellulose) (HPC)); 103 % of control (endpoint: mean survival time, dose: 100.0 mg/kg/injection, schedule: Q01DX001 (ip), vehicle: Klucel (hydroxypropylcellulose) (HPC)).
Take `C=CCn1nnnc1N`: the T/C (endpoint: mean survival time, dose: 100.0 mg/kg/injection, schedule: Q04DX003 (ip), vehicle: saline) is 101 % of control; the T/C (endpoint: mean survival time, dose: 200.0 mg/kg/injection, schedule: Q04DX003 (ip), vehicle: saline) is 103 % of control; the T/C (endpoint: mean survival time, dose: 400.0 mg/kg/injection, schedule: Q04DX003 (ip), vehicle: saline) was 101 % of control.
In the case of `C=C(C)CSc1ccccc1`, the T/C is, setting by setting: (endpoint: mean survival time, dose: 5.0 mg/kg/injection, schedule: Q01DX001 (ip), vehicle: saline) 97 % of control; (endpoint: mean survival time, dose: 10.0 mg/kg/injection, schedule: Q01DX001 (ip), vehicle: saline) 97 % of control; (endpoint: mean survival time, dose: 20.0 mg/kg/injection, schedule: Q01DX001 (ip), vehicle: saline) 97 % of control; (endpoint: mean survival time, dose: 40.0 mg/kg/injection, schedule: Q01DX001 (ip), vehicle: saline) 97 % of control; (endpoint: mean survival time, dose: 80.0 mg/kg/injection, schedule: Q01DX001 (ip), vehicle: saline) 97 % of control; under setting [9], 95 % of control. Under “endpoint: mean survival time, dose: 200.0 mg/kg/injection, schedule: Q01DX001 (ip), vehicle: saline”, the T/C was 103 % of control.
For `NNC(=O)c1nc(N)n[nH]1`, the T/C reads like this: under setting [6], 101 % of control; under setting [7], 103 % of control; under setting [8], 104 % of control.
As for `CC12OC3(C)C4C(O)C1C1(C)OC4(C)C3C(O)C21` (stereo unspecified), the T/C runs as follows: (endpoint: mean survival time, dose: 100.0 mg/kg/injection, schedule: Q01DX009 (ip), vehicle: saline) 96 % of control; (endpoint: mean survival time, dose: 200.0 mg/kg/injection, schedule: Q01DX009 (ip), vehicle: saline) 102 % of control; (endpoint: mean survival time, dose: 400.0 mg/kg/injection, schedule: Q01DX009 (ip), vehicle: saline) 98 % of control.
Take `CCCN(CCC)c1ccc(C#N)cc1`: the T/C reads like this: (endpoint: mean survival time, dose: 100.0 mg/kg/injection, schedule: Q04DX003 (ip), vehicle: Klucel (hydroxypropylcellulose) (HPC)) 91 % of control; (endpoint: mean survival time, dose: 200.0 mg/kg/injection, schedule: Q04DX003 (ip), vehicle: Klucel (hydroxypropylcellulose) (HPC)) 92 % of control; (endpoint: mean survival time, dose: 400.0 mg/kg/injection, schedule: Q04DX003 (ip), vehicle: Klucel (hydroxypropylcellulose) (HPC)) 95 % of control.
For the compound `CN(C)c1ccc(/C=N\O)c2c1CCC2`, the T/C was 102 % of control under setting [6], 102 % of control under setting [7] and 100 % of control under setting [8].
